Broadly, the EC50 is the concentration needed to bring the measured effect to its halfway point. Low readings indicate an effect from little substance, high ones a need for much substance.

This experiment can be described thus: Effective concentration for DP2 mediated chemotaxis in eosinophils.
Turning to `CCCCC[C@](C)(O)/C=C/[C@H]1C(=O)C[C@H](O)[C@@H]1C/C=C/CCCC(=O)O`, the EC50 came to 128 nM. This counts as sub-micromolar.

`CCCCC[C@@](C)(O)/C=C/[C@H]1C(=O)C[C@H](O)[C@@H]1C/C=C/CCCC(=O)O` [(Z)-7-[(1R,4S,5R)-5-Hydroxy-2-((R)-3-hydroxy-3-methyl-oct-1-enyl)-3-oxo-cyclopentyl]-hept-5-enoic acid] registered an EC50 of 1.7 nM. In turn, `CCCCC[C@H](O)/C=C/[C@H]1C(=O)C[C@H](O)[C@@H]1C/C=C/CCCC(=O)O` [(Z)-7-[(1R,2R,5S)-5-Hydroxy-2-((E)-(S)-3-hydroxy-oct-1-enyl)-3-oxo-cyclopentyl]-hept-5-enoic acid] had an EC50 of 10 nM.

The values are drawn from BindingDB's records for doi:10.1016/j.bmcl.2005.02.011 (Florida Institute of Technology, 2005).
